This note sets out measurements from patent EP0429522B1, “PHOSPHOSUGAR-BASED ANTI-INFLAMMATORY AND/OR IMMUNOSUPPRESSIVE DRUGS” (THE AUSTRALIAN NATIONAL UNIVERSITY, priority 1988, dated 1990).

Assay [1] deals with Delayed-Type Hypersensitivity (DTH). The assay can be described thus: Delayed-type hypersensitivity (DTH) footpad swelling after sheep red blood cell challenge. The assay is classed as in vivo, C57Bl mice. Conditions: 24 hours after challenge; 0.15mg i/p per injection, 7 injections at approx. 3½ hour intervals. Here is the method: C57Bl mice were sensitised by i.v. injection 10⁵ of washed sheep red blood cells. 5 days later they were challenged in the right hind footpad with SRBC. Each mouse was given a 0.25ml injection i/p at the same time of either saline, mannose-6-phosphate or the 1,2,3,4-tetraacetate of mannose-6-phosphate and all injections were repeated a further 6 times at approx. 3½ hour intervals. The dose in each injection of mannose-6- phosphate was 0.15mg and of 1,2,3,4-tetra-O-acetyl derivative of mannose-6-phosphate was also 0.15mg. At 24 hours after challenge the DTH swelling was measured.

For assay [2], the system named is Adoptively Transferred EAE. The assay can be described thus: Inhibition of adoptively transferred EAE (clinical signs), phosphosugar delivered by subcutaneous mini-osmotic pumps. The format is in vivo, Lewis rats. The conditions noted are these: for Disease Severity (%Control): product of mean clinical score and mean length disease; for inhibition of EAE (result in words): summary of Tables I, III and IV. Here is the method:
In this Example, a number of phosphosugars and one phospho-polysaccharide were tested for their ability to inhibit development of EAE in rats. (All phosphosugars tested are commercially available and were obtained from Sigma Chemical Co., St. Louis, MO, U.S.A.). Experimental details are included in the footnotes to the Tables setting out the test results.
Thus, although 7/10 animals treated with mannose-6-phosphate developed some clinical signs of disease (Table III) the severity of these disease symptoms was extremely mild compared with untreated animals, i.e., <10% disease severity of controls when clinical scores and duration of disease are examined. In this sense, the mannose-6-phosphate data in Tables I and III are almost identical. […]
In these experiments, details of which were as in Table I, the number of cells transferred was 25x10⁶/rat, while the dose of compound administered was 10mg/rat delivered over a 7 day period by mini-osmotic pumps, commencing on day 3 after cell transfer.

Assay [3] concerns Passive Adjuvant Arthritis. The assay can be described thus: Suppression of passive adjuvant arthritis (foot size). The assay is classed as in vivo, (DA x Lew)Fl rats. The conditions noted are these: 6mg/rat/day by miniosmotic pumps for 14 days. Here is the method:
(DA x Lew)Fl rats were immunized with M.butyricum in light mineral oil given in each foot. Ten days later spleens were removed and incubated as single cell suspension tissue culture medium in + 5µg/ml ConA for 75 hrs. Cells were harvested, washed and transferred i.v. at 65 x 10⁶ cells/rat into (DA x Lew)F recipients.
Treated rats were implanted on the day they received cells with miniosmotic pumps which delivered 6mg/rat/day of mannose-6- phosphate for 14 days. Control rats were sham operated. The results are shown in Table VII as % of pre-cell injection foot size. {Average for group; n=4 (mannose-6-phosphate); n=6 (control)}.

A further assay relates to EAE. The assay can be described thus: Histological analysis of spinal cord inflammatory lesions in EAE rats. The format is in vivo. Conditions: for No.Lesions: lower thoracic-upper lumbar spinal cord sections, treated as in Table I; for No.Lesions / Lesions/section: 9 days after cell transfer; for Lesions/section: spinal cord sections. An excerpt:
Such data are consistent with the view that the sugars are inhibiting entry of leukocytes into the CNS.

Where [4] appears, read: Table III, experimental details as in Table I.
The mark [5] stands for this setting: Table II, dose 10 mg over 7 days.
[6] abbreviates: Table II, dose 20 mg over 7 days.
[7] abbreviates: Table II, dose 40 mg over 7 days.

Bounds are passed on as bounds.

Regarding “1,2,3,4-tetra-O-acetyl derivative of mannose-6-phosphate”, the “reduction of DTH swelling as compared with the saline controls” value in assay [1] is given as 91.5%.

In the case of “6-phospho-mannose-α(1-3)-{mannose-α-(1-3)}₂-mannose-α-(1-2)-mannose [Pentasaccharide]”, the EAE/Total in assay [2] (Table VI, 25x10⁶ cells/rat, 10mg/rat over 7 days by mini-osmotic pumps from day 3) was 1/5.

Consider `OC[C@H]1OC(O)[C@@H](O)[C@@H](O)[C@@H]1O` (stereo partly drawn) [D-mannose, reference compound], for which, in assay [2] (setting [4]), the “Mean Clinical Score” value worked out at 2.9, the “Mean Day Onset” value amounted to 5.2, the “Mean Length Disease” value is 4.4 days and the “No.with EAE/Total” value is given as 5/5. Besides, in assay [2] (Table III), the “Disease Severity (%Control)” value was 84.5%. Besides, the “inhibition of EAE (result in words)” value in assay [2] is reported as “little or no effect on disease progression”.

For the compound `O=C(COP(=O)(O)O)[C@@H](O)[C@H](O)[C@H](O)COP(=O)(O)O` [Fructose-1,6-diphosphate, fructose-1,6-diphosphate], in assay [2] (setting [4]), the “Mean Clinical Score” value is 2.4, the “Mean Day Onset” value is on record as 5.4, the “Mean Length Disease” value stood at 3.4 days and the “No.with EAE/Total” value is reported as 5/5. Also, the “Disease Severity (%Control)” value in assay [2] (Table III) was 54.0%. In addition, in assay [2], the “inhibition of EAE (result in words)” value was “partially inhibitory”.

Regarding `O=C(COP(=O)(O)O)[C@@H](O)[C@H](O)[C@H](O)CO` [Fructose-1-phosphate, fructose-1-phosphate], in assay [2] (setting [4]), the “Mean Clinical Score” value came to 1.2, the “Mean Day Onset” value is reported as 5.5, the “Mean Length Disease” value came to 1.6 days and the “No.with EAE/Total” value was 3/5. In assay [2] (Table III), the “Disease Severity (%Control)” value came to 12.6%. Moreover, the “inhibition of EAE (result in words)” value in assay [2] is “as effective as mannose-6-phosphate at inhibiting disease”.

In the case of `O=C(CO)[C@@H](O)[C@H](O)[C@H](O)COP(=O)(O)O` [Fructose-6-phosphate], in assay [2] (setting [4]), the “Mean Clinical Score” value was determined as 1.6, the “Mean Day Onset” value is reported as 6.0, the “Mean Length Disease” value is 2.4 days and the “No.with EAE/Total” value is 4/5. In addition, the “Disease Severity (%Control)” value in assay [2] (Table III) was 25.4%. Moreover, the “inhibition of EAE (result in words)” value in assay [2] was “comparatively effective inhibitor of EAE”.

`O=P(O)(O)OC[C@H]1OC(O)[C@H](O)[C@@H](O)[C@H]1O` (some centres unmarked) [Galactose-6-phosphate, galactose-6-phosphate]: in assay [2] (setting [4]), the “Mean Clinical Score” value was 2.0, the “Mean Day Onset” value stood at 5.2, the “Mean Length Disease” value was found to be 3.0 days and the “No.with EAE/Total” value is 5/5. For the same compound, the “Disease Severity (%Control)” value in assay [2] (Table III) was 40.5%. Besides, the “inhibition of EAE (result in words)” value in assay [2] is listed as “partially inhibitory”.

For the compound `O=P(O)(O)OC[C@H]1OC(O)[C@H](O)[C@@H](O)[C@@H]1O` (some centres unmarked) [Glucose-6-phosphate, glucose-6-phosphate], in assay [2] (setting [4]), the “Mean Clinical Score” value is listed as 2.0, the “Mean Day Onset” value is on record as 5.4, the “Mean Length Disease” value is on record as 3.8 days and the “No.with EAE/Total” value is given as 5/5. Further, in assay [2] (Table III), the “Disease Severity (%Control)” value was 50.3%. Besides, the “inhibition of EAE (result in words)” value in assay [2] is reported as “partially inhibitory”.

With `O=P(O)(O)OC[C@H]1OC(O)[C@@H](O)[C@@H](O)[C@@H]1O` (some centres unmarked) [Mannose-6-phosphate, mannose-6-phosphate], the “reduction of DTH swelling as compared with the saline controls” value in assay [1] is 52.5%. For the same compound, the “Mean Length Disease” value in assay [2] (Table I, 40 mg/rat over 7 days) is reported as 0 days; in assay [2] (setting [5]), 3.3; in assay [2] (setting [6]), 3.0; in assay [2] (setting [7]) it was 0.7; in assay [2] (setting [4]), 1.5 days. The “Mean Day Onset” value in assay [2] (Table I, 40 mg/rat over 7 days, s.c. pumps from day 3) is reported as 0; in assay [2] (setting [5]), 5.0; in assay [2] (setting [6]) it was 5.0; in assay [2] (setting [7]) it was 5.0; in assay [2] (setting [4]) it was 6.0. Also, the “Mean Clinical Score” value in assay [2] (Table I, 40 mg/rat over 7 days, score 0-5) is 0; in assay [2] (setting [5]), 1.8; in assay [2] (setting [6]), 1.5; in assay [2] (setting [7]), 0.3; in assay [2] (setting [4]), 0.9. In addition, the “No.with EAE/Total” value is 0/8 in assay [2] (Table I, 30 x 10⁶ ConA activated EAE effector cells, 40 mg/rat over 7 days, s.c. pumps from day 3); 4/4 in assay [2] (setting [5]); 4/4 in assay [2] (setting [6]); 1/3 in assay [2] (setting [7]); 7/10 in assay [2] (setting [4]). Further, the “Disease Severity (%Control)” value in assay [2] (Table II, dose 10 mg over 7 days, listed as Mannose-6-Phosphate) is on record as 37.7%; in assay [2] (Table II, dose 10 mg over 7 days, listed as mannose-6-phosphate) it was 37.7%; in assay [2] (setting [6]), 28.6%; in assay [2] (setting [7]), 1.7%; in assay [2] (Table III) it was 8.9%; in assay [2] (Table III, listed as mannose-6-phosphate), less than 10%. Besides, the “inhibition of EAE (result in words)” value in assay [2] was “totally inhibited development of disease”. Besides, the “% of pre-cell injection foot size” value in assay [3] (Day 4, group average n=4) came out at 97.3%; in assay [3] (Day 6, n=4) it was 105.8%; in assay [3] (Day 7, n=4), 102.8%; in assay [3] (Day 9, n=4) it was 108.4%; in assay [3] (Day 11, n=4), 107.6%; in assay [3] (Day 14, n=4) it was 117.4%. Moreover, in the assay on EAE (text summary of Table V), the “CNS lesions (result in words)” value is recorded as “No lesions were detected”. The No.Lesions with EAE (treated rat 1) and in the assay with EAE (treated rat 2) was 0 throughout. Besides, the Lesions/section in the assay with EAE (treated rat 1) and with EAE (treated rat 2) was 0 throughout.

In the case of Glucose-1-phosphate, in assay [2] (setting [4]), the “Mean Clinical Score” value is 3.0, the “Mean Day Onset” value stood at 5.2, the “Mean Length Disease” value stood at 3.8 days and the “No.with EAE/Total” value is on record as 5/5. Besides, the “Disease Severity (%Control)” value in assay [2] (Table III) worked out at 75.5%. Besides, the “inhibition of EAE (result in words)” value in assay [2] is “little or no effect on disease progression”.
